Earlier results on 1 molecule are cited in patent publication US20260137644A1, “COMPOSITIONS INCLUDING CAFFEIC ACID PHENETHYL ESTER” (XMK THERAPEUTICS INC., priority 2022, published 2026).

In data set [1] the test system is carrageenin-induced inflammation.
A further data set relates to NFAT. The settings on record: Jurkat cells.

With `O=C(/C=C/c1ccc(O)c(O)c1)OCCc1ccccc1` [CAPE, 2-phenylethyl (E)-3-(3,4-dihydroxyphenyl)prop-2-enoate], the exudate volume result in data set [1] was “suppresses”. For the same molecule, the leukocytes relocation entry in data set [1] was “suppresses”. Besides, in the data set on interleukin-2 (IL-2), the “interleukin-2 (IL-2) gene transcription and synthesis” value is recorded as “inhibition”. Also, the “binding with DNA and transcriptional activity of NFAT” value with NFAT is “inhibition”. The antimicrobial activity result in the data set on Enterococcus faecalis, with Listeria monocytogenes, in the data set on Staphylococcus aureus and in the data set on Haemophilus influenzae was “active” each time.
